Reference: patent US20110275576A1, “Carbohydrate-Cyclopamine Conjugates as Anticancer Agents” (Utah State University, priority 2009, published 2011)
Where two headings read alike, the source gives them in different places.

Tested on: A549 cells
Test: MTS assay, proliferation of A549 cells
Assay type: cell-based, human
Conditions: for proliferation of A549 cells: statement on Table 1; for IC50: read-out: IC50, anticancer activity against lung cancer
Procedure: Experimental procedure for MTS assay. To determine the efficacy of the compounds to cancer cells, a 3-(4,5-dimethylthiazol-2-yl)-5-(3-carboxymethoxyphenyl)-2-(4- sulfophenyl)-2H-tetrazolium inner salt (MTS) assay was used. A549 cells (ATCC, Manassas, Va.), representing a human lung carcinoma cell line, were plated on flat-bottomed 96-well plates in the presence of various concentrations of each compound. After incubation for up to 48 h at 37° C., the percentage of cell proliferation was determined with the MTS assay (Promega CellTiter 96 Aqueous Assay. Madison, Wis.), following the manufacturer's instruction.

[1] = A549 human lung carcinoma cells, MTS assay, incubation up to 48 h at 37° C.

## CC1=C2C[C@H]3[C@@H](CC=C4C[C@@H](O)CC[C@@]43C)[C@@H]2CC[C@]12O[C@@H]1C[C@H](C)CN(Cc3cn([C@@H]4OC(CO)[C@@H](O)C(O)C4O)nn3)[C@H]1[C@H]2C (stereo partly drawn) [Example 3a, N-(1-(β-D-Glucopyranosyl)-1H-1,2,3-triazol-4-yl)methylcyclopamine]
A549 cells, MTS assay
  proliferation of A549 cells: reduced the proliferation of A549 cells
[1]
  IC50: 144 µM

## CC1=C2C[C@H]3[C@@H](CC=C4C[C@@H](O)CC[C@@]43C)[C@@H]2CC[C@]12O[C@@H]1C[C@H](C)CN(Cc3cn([C@@H]4OC(CO)[C@@H](O[C@@H]5OC(CO)[C@H](O)C(O)C5O)C(O)C4O)nn3)[C@H]1[C@H]2C (stereo partly drawn) [Example 3d, N-(1-(4-O-(β-D-Galactopyranosyl)-β-D-glucopyranosyl)-1H-1,2,3-triazol-4-yl)methylcyclopamine]
A549 cells, MTS assay
  proliferation of A549 cells: reduced the proliferation of A549 cells
Homo sapiens, A549, 48 h
  IC50: 183 µM

## CC1=C2C[C@H]3[C@@H](CC=C4C[C@@H](O)CC[C@@]43C)[C@@H]2CC[C@]12O[C@@H]1C[C@H](C)CN(Cc3cn(C4OC(C)[C@H](O)C(O)[C@@H]4O)nn3)[C@H]1[C@H]2C (stereo partly drawn) [Example 3f, N-(1-(α-L-Rhamnopyranosyl)-1H-1,2,3-triazol-4-yl)methylcyclopamine]
A549 cells, MTS assay, comparison with cyclopamine
  proliferation of A549 cells compared with cyclopamine: reduced the proliferation of A549 cells more than cyclopamine
A549 cells, MTS assay
  proliferation of A549 cells: reduced the proliferation of A549 cells
[1]
  IC50: 33 µM

## CC1=C2C[C@H]3[C@@H](CC=C4C[C@@H](O)CC[C@@]43C)[C@@H]2CC[C@]12O[C@@H]1C[C@H](C)CN(Cc3cn([C@@H]4OC(CO)[C@@H](O[C@@H]5OC(CO)[C@@H](O[C@@H]6OC(CO)[C@@H](O)C(O)C6O)C(O)C5O)C(O)C4O)nn3)[C@H]1[C@H]2C (stereo partly shown) [Example 3k]
A549 cells, MTS assay
  proliferation of A549 cells: reduced the proliferation of A549 cells
[1]
  IC50: 96 µM

## CC1=C2C[C@H]3[C@@H](CC=C4C[C@@H](O)CC[C@@]43C)[C@@H]2CC[C@]12O[C@@H]1C[C@H](C)CN[C@H]1[C@H]2C [cyclopamine]
Homo sapiens, A549, 48 h
  IC50: 49 µM
